Results taken from patent US20230226135A9, “ACETYLCHOLINE MODULATION OF IMMUNE FUNCTION” (BCell Solutions, Inc., priority 2019, published 2023).
Entries after “also recorded” stand apart in the source; their conditions may differ.

Tests used:
[1] = Preeclampsia model in pregnant mice (TLR agonists), blood pressure; type: in vivo; settings: TLR agonist induced, CAP i.p. 2 mg/kg
Procedure: FIG. 15. CAP reverses inflammatory characteristics in a preeclampsia model. Pregnant mice were treated with TLR agonists (R837, Clo97, and PIC) to induce symptoms of preeclampsia followed by CAP treatment (shown as TPP).
Preeclampsia, a disease suffered by pregnant woman that is characterized by high blood pressure and signs of damage to other organ systems, most often the liver and kidneys, is often accompanied by inflammation. […] Preeclampsia is also associated with an elevated TH17 response, including elevated IL17a, and elevated IL17a is associated with human and experimental hypertension and poor perinatal outcomes. […] Therefore, the anti-inflammatory effects of CAP were associated with improved outcomes in this model.

[2] = Toxicity evaluation in CFA/Peptide/MLA study (survival, body weight change, spleen weight); type: in vivo, mice
Procedure: SUMMARY: A study was conducted to evaluate a potential alpha7 nAChR anti-inflammatory mechanism of the MKR-4 peptide, using the alpha7 nAChR antagonist methyllycaconitine (MLA). After enrollment, animals in Groups 2-4 were sensitized ID at the base of the tail with 0.1 mL FCA on Day 1. On Days 2, 3, 5 & 7 Groups were then dosed intraperitoneally (IP) with either: peptide and MLA in combination (2 mg/kg and 6 mg/kg, respectively); peptide (2 mg/kg) and MLA vehicle (saline) in combination; or peptide vehicle (saline) and MLA vehicle (saline). Animals were dosed once on Study Day 2 (MLA or MLA vehicle), and Days 3, 5 & 7 (Peptide or Peptide vehicle, MLA or MLA vehicle) as described in Table 2 below. Body weights were recorded on Study Days 0 & 8. Mice were euthanized for necropsy on Study Day 8, and serum and whole spleens were collected from all animals and sent to the sponsor for internal FACS analysis. Toxicity and Peptide mechanistic evaluation was based on absolute body weight change, spleen weights and sponsor FACS analysis (not included in report). […]
Statistical Analysis: Data for each animal were entered into Microsoft Excel and means and standard errors for each group were calculated. Test groups were compared to vehicle controls using a one-way analysis of variance (1-way ANOVA) with a Dunnett's post-hoc analysis for measured (parametric) data. […]

[3] = tested on: peripheral pro-inflammatory cells; assay: TBI (fluid percussion injury), peripheral pro-inflammatory cells; type: in vivo; settings: TBI / FPI
Excerpt: FIG. 17. CAP reduces peripheral pro-inflammatory cells. TBI is traumatic brain injury. FPI is fluid percussion injury.

[4] = tested on: blood brain barrier (BBB); assay: Intravital microscopy of BBB permeability and lymphocyte adhering/rolling in pial venules; type: in vivo, C57 BL/6J mice
Excerpt: Whether intranasal infection with Streptococcus pyogenes would induce blood-brain barrier permeability in C57 BL/6J mice by a TLR-dependent mechanism was examined. Immediately following craniotomy, mice were placed under an intravital microscope to study vascular permeability and leukocytes. Permeability of cerebral blood vessels was observed using FITC-dextran fluorescent dye and, tracing of leukocytes is observed by labeling such cells with Rhodamine-6G. Intranasal infection with Streptococcus pyogenes (gram positive) increased BBB permeability (FIG. 4) and the number of adherent or rolling lymphocytes (FIG. 4) within 24 hours post-infection, compared to saline treated controls.
Methods: To test the hypothesis that intranasal infection may increase BBB permeability, we exposed mice to GAS via intranasal infection with Streptococcus pyogenes (GAS). We assessed BBB permeability using intravital microscopy, and we characterized the immune response to GAS using flow cytometric analysis of nasal associated lymphoid tissue (NALT), spleen, and brain.
Intranasal infection: Isoflurane gas was employed to briefly anesthetize mice (1-2 minutes). Once anesthetized, 7.5 uL of streptococcal bacterial suspension (OD600=0.5-0.6) was placed on each nares (outer nostril) of mouse. Control mice received intranasal inoculation with vehicle (PBS). The droplets were inhaled into nasal sinuses. This small volume avoids inoculation of the lungs, but reproducibly results in colonization of nasal-associated lymphoid tissue (NALT, Park 2003; Wang 2010).
Intraperitoneal injection: The TLR 1/2 agonist, Pam-3-Cys (25 ug/mouse; Pam3CSK4, InvivoGen, San Diego Calif.) was intraperitoneally (right side) injected into mice 24 hours before intravital microscopy. P3C causes immune cell activation and polycolonal expansion of B-lymphocytes by Toll-Like receptor ligation (Newell 2010). Control mice received equal volume of vehicle (PBS) intraperitoneally.
MHC class II-targeted proprietary peptide (TPP, Elim Biopharmaceuticals Inc., Hayward Calif.; also see Newell 2010) was administered intraperitoneally (5 ug/mouse, left side), sometimes in conjunction with P3C (right side). TPP was dissolved in DMSO for a final concentration of 2.5% DMSO in PBS. Control mice received vehicle (2.5% DMSO in PBS) intraperitoneally.
Preparation of Mice: Mice were anesthetized with an (i.p.) injection of 50% urethane (Sigma-Aldrich, U2500) in PBS ([…]) and maintained on heating pad. Anesthetic plane was assessed throughout preparation and experiments, by response to toe pinch. If needed, urethane supplement was given at 10% of original dose volume. To prepare mice tails for intravenous (i.v.) dye injection we maintained anesthetized mice on a heating pad for 10-15 minutes, and then briskly wiped tails (toward tail-end) with 70% ethanol wipes to remove scales/hair and increase vasodilation. Immediately following tail wiping, Fluorescein dextran 10 kDa (10 mg/mL, Sigma-Aldrich, FD10S) was administered (2 uL/g mouse) via right lateral tail vein and, Rhodamine 6G (0.2 mg/mL, Sigma-Aldrich, 83697) was administered (1.6 uL/g mouse) via left lateral tail vein. When needed, tail was wiped multiple times to ensure clear visualization of tail veins. Following successful (i.v.) injection of dyes, mice underwent craniotomy.
Craniotomy: A craniotomy (removal of a small area of skull) was performed to expose the cerebrum and allow imaging of cerebral microvasculature (specifically pial vessels of pia mater). First, an incision across the midline of the scalp was made to expose the right parietal bone. The skull was then carefully marked with a waterproof marker, designating the area, 1 mm posterior from the Bregma and 4 mm lateral from the midline, to be removed (craniotomy diameter: 2.5 mm). Next, the craniotomy was performed with a drill ensuring the dura mater was not cut. […]

[5] = TPP 5 ug/mouse i.p., 24 hours, listed as TPP

Sequence: FRIMAVLAS [CAP, α7nAChR agonist]
- elevated blood pressure [1]: significantly reduced
- survival to study termination ([2]; Peptide 2 mg/kg IP Days 3, 5, 7, with or without MLA): All mice survived
- group body weight change differences and spleen weight differences ([2]; Peptide 2 mg/kg IP, with or without MLA 6 mg/kg, CFA mice): none of the group body weight change differences or spleen weight differences were significant
- peripheral pro-inflammatory cells [3]: reduces
- P3C-induced lymphocyte rolling ([4]; TPP 5 ug/mouse i.p. with P3C, 24 hours): reduced
- P3C-induced lymphocyte adhering ([4]; TPP 5 ug/mouse i.p. with P3C, 24 hours, listed as TPP): reduced; also recorded: significantly reversed
- streptococcal infection-induced lymphocyte adhering [4, 5]: significantly reversed
- streptococcal infection-induced lymphocyte rolling [4, 5]: reversed; also recorded: reduced
- size of adherent cells ([4]; TPP in infected or P3C treated mice): did not attenuate
